This note sets out measurements from patent EP4745135A1 (Gluetacs Therapeutics (Shanghai) Co., Ltd., priority 2023, dated 2025).

In one assay the target is T1, CK1α (Homo sapiens, UniProt P48729+Q96SW2).
T1 construct: effects of the compounds of the present disclosure on the expression of target proteins in cells; endogenous in cells; host or cells: human PBMCs (Milecell Biotechnologies)
The experiment in a line: Western blot, degradation of substrate protein in hPBMCs. The format is cell-based. The settings on record: 24 hours treatment, compounds at 50 nM and 500 nM (concentration behind the class not stated).

For another assay, the target named is T2, IKZF1 (Homo sapiens, UniProt Q13422+Q96SW2).
T2 construct: effects of the compounds of the present disclosure on the expression of target proteins in cells; endogenous in cells; host or cells: human PBMCs (Milecell Biotechnologies)
T2 sequence (Q13422 whole entry): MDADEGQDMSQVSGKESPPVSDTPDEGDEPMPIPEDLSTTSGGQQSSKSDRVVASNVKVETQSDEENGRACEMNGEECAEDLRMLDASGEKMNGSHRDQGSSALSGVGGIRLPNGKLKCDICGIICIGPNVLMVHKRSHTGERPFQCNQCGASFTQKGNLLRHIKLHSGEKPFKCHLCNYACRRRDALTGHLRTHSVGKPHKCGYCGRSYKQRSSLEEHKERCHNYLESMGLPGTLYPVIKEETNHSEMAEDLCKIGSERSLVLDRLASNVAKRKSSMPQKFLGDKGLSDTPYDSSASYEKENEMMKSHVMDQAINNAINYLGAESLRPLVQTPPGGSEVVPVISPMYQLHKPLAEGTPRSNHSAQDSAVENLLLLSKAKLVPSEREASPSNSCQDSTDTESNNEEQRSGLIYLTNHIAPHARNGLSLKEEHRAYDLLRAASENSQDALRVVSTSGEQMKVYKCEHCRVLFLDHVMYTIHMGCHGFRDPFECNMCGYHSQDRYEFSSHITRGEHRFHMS
T2 sequence (Q96SW2 whole entry): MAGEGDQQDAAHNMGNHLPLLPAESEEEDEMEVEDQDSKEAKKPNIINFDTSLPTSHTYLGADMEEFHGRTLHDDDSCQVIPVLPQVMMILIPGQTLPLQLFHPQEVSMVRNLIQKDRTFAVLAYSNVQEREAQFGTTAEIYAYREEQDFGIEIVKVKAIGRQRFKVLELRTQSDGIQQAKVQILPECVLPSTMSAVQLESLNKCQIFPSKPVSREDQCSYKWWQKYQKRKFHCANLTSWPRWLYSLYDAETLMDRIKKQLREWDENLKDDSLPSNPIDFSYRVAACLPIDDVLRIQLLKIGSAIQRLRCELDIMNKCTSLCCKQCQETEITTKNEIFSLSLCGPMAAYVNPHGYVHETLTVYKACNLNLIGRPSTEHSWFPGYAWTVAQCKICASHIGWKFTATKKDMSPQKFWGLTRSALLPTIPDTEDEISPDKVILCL
T2 sequence (Q16531 whole entry partner): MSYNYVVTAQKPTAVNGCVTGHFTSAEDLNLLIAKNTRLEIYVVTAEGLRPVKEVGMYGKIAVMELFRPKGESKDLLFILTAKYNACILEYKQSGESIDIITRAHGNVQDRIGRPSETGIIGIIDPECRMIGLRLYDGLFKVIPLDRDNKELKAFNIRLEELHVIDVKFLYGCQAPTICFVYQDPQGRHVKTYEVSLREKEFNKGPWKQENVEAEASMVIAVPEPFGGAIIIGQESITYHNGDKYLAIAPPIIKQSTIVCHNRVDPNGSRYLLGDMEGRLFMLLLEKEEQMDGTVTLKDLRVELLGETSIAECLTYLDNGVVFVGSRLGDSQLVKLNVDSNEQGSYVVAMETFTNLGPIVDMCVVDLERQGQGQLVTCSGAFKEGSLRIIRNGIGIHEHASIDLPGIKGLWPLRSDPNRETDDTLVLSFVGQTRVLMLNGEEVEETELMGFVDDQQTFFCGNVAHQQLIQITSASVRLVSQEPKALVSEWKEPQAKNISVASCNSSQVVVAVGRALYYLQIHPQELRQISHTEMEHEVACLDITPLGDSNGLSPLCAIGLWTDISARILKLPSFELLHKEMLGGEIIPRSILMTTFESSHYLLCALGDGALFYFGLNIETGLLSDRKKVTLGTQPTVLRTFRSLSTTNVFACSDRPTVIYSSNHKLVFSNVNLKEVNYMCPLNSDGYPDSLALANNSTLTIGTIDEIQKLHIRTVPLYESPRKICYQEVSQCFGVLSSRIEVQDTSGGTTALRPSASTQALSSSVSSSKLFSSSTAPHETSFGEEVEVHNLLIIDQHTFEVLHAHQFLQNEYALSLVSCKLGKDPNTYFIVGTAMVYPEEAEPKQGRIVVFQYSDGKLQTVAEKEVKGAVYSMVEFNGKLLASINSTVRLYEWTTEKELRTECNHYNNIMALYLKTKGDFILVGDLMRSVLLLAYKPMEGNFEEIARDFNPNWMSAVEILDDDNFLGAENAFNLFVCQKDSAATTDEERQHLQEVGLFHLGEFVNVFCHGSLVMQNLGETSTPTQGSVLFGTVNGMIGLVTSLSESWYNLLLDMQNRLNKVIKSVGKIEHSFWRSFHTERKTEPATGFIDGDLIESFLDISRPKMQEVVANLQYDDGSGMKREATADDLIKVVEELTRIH
The assay is described as above. The format is cell-based. The settings on record: 24 hours treatment, compounds at 50 nM and 500 nM (concentration behind the class not stated).

A further assay concerns the target T3, IKZF2 (Homo sapiens, UniProt Q96SW2+Q9UKS7).
T3 construct: effects of the compounds of the present disclosure on the expression of target proteins in cells; endogenous in cells; host or cells: human PBMCs (Milecell Biotechnologies)
The description is as above. The format is cell-based. The note with it: 24 hours treatment, compounds at 50 nM and 500 nM (concentration behind the class not stated).

Another assay concerns the target T4, IKZF3 (Homo sapiens, UniProt Q96SW2+Q9UKT9).
T4 construct: effects of the compounds of the present disclosure on the expression of target proteins in cells; endogenous in cells; host or cells: human PBMCs (Milecell Biotechnologies)
Described as above. It counts as cell-based. The note with it: 24 hours treatment, compounds at 50 nM and 500 nM (concentration behind the class not stated).

Another assay deals with T5, WEE1 (Homo sapiens, UniProt P30291+Q96SW2).
T5 construct: effects of the compounds of the present disclosure on the expression of target proteins in cells; endogenous in cells; host or cells: human PBMCs (Milecell Biotechnologies)
T5 sequence (P30291 whole entry): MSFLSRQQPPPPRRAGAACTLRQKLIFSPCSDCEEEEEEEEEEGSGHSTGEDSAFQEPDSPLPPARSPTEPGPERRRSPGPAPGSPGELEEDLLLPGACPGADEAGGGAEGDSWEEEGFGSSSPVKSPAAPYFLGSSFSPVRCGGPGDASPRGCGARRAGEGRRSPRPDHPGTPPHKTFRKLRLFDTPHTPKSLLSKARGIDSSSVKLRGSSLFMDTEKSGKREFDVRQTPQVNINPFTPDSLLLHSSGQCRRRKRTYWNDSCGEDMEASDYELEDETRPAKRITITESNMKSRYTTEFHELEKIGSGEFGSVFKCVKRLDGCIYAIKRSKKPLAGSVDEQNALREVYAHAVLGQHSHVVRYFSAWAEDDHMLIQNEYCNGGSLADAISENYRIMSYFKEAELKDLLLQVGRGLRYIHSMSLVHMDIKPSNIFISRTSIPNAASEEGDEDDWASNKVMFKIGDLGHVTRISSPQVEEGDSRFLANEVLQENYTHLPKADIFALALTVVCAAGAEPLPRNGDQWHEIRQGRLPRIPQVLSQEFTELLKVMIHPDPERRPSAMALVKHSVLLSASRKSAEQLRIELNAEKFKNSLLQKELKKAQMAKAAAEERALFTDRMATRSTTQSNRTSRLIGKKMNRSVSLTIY
T5 sequence (Q96SW2 whole entry): as the sequence (Q96SW2 whole entry) above
T5 sequence (Q16531 whole entry partner): as the sequence (Q16531 whole entry partner) above
The description is as above. It counts as cell-based. The note with it: 24 hours treatment, compounds at 50 nM and 500 nM (concentration behind the class not stated).

The next assay has as its system GSPT1. The assay is described as above. It counts as cell-based, Human. The note with it: 24 hours treatment, compounds at 50 nM and 500 nM (concentration behind the class not stated).
Assay [1] deals with T6, human Cereblon WT GST-tagged protein (Homo sapiens, UniProt Q96SW2).
T6 construct: purchased CISBIO 64BDCRBNPEH
T6 sequence (Q96SW2 whole entry): as the sequence (Q96SW2 whole entry) above
Nature of the assay: CRBN-binding affinity, HTRF (CEREBLON BINDING kit). The note with it: for inhibition at 0.5 µM: read-out: Inhibition Rate at 0.5 µM (%); for inhibition at 2 µM: read-out: Inhibition Rate at 2 µM (%).

Assay [2] relates to Human multiple myeloma cell (MM.1S). Nature of the assay: Tumor cell proliferation inhibition (CellTiter-Meiluncell luminescent cell viability assay). The settings on record: Homo sapiens, MM1.S, 96 h.
Procedure: (§1) The tumor cells used herein were cultured in a cell culture medium listed in table 2 at 37°C in an incubator with 5% CO2. Prior to experimentation, all cell lines used were correctly identified by STR profiling, and tested negative for mycoplasma contamination using a mycoplasma detection kit through routine screenings.
(§2) The IC50 values of the compounds of the present disclosure (including the compounds in Table 1 and Examples) were determined using the CellTiter-Meiluncell Luminescent Cell Viability Assay Kit from Dalian Meilun Biotech Co., Ltd. The detailed procedure is as follows: Tumor cells were seeded in 96-well cell culture plates at the densities specified in Table 3. On the following day, the test compounds of the present disclosure were subjected to serial dilution. The dilution can be performed according to one of the following two methods: • (1) The first dilution method: The test compounds of the present disclosure (including the compounds in Table 1 and Examples) were subjected to 5-fold serial dilutions starting from a highest concentration of 2000 µM, resulting in a total of 9 concentrations from high to low (2000, 400, 80, 16, 3.2, 0.64, 0.128, 0.0256, 0.00512 µM). Subsequently, 0.5 µL of the test compound dilution was transferred into the 96-well plate containing the cells, with each well containing 100 µL of cell culture medium. […] Into the 96-well plate, the diluted test compounds and corresponding detection reagents were added, resulting in final test compound concentrations of 500 nM and 10 nM, respectively. The experimental procedure is described below using the diluted 2 µM test compound as an example.
(§3) 0.5 µL of the aforementioned diluted compound of the present disclosure (including the compounds in Table 1 and Examples) was added to the seeded cells in 100 µL of medium, yielding a final test compound concentration of 10 nM. After the cells were treated with the compounds of the present disclosure for a specified period, the cell viability assay reagent was added to the culture medium according to the kit's instructions to determine cell viability. […] All controls were treated using the same procedure as the compounds of the present disclosure. The growth inhibition curves for the compounds of the present disclosure were plotted using Prism GraphPad software, and the IC50 values were calculated therefrom.
The subject of assay [3] is Human breast cancer cell (MCF-7). The description is as above. The settings on record: MCF7, 96 h; for inhibition at 0.01 µM: read-out: Inhibition Rate at 10 nM (%); for inhibition at 0.5 µM: read-out: Inhibition Rate at 500 nM (%).
The subject of assay [4] is Human monocytic leukemia cell line: THP-1. The assay is described as above. The note with it: THP-1, 96 h; for inhibition at 0.01 µM: read-out: Inhibition Rate at 10 nM (%); for inhibition at 0.5 µM: read-out: Inhibition Rate at 500 nM (%).
Procedure: as §1, §2, §3
For assay [5], the system named is Human colon cancer cell line: SW620. The assay is described as above. The settings on record: SW-620, 96 h; for inhibition at 0.01 µM: read-out: Inhibition Rate at 10 nM (%); for inhibition at 0.5 µM: read-out: Inhibition Rate at 500 nM (%).
Procedure: as §1, §2, §3
The subject of assay [6] is Human malignant melanoma cell line: A375. The description is as above. The settings on record: A-375, 96 h; for inhibition at 0.01 µM: read-out: Inhibition Rate at 10 nM (%); for inhibition at 0.5 µM: read-out: Inhibition Rate at 500 nM (%).
Procedure: as §1, §2, §3
The subject of assay [7] is Human multiple myeloma peripheral blood B lymphocyte cell (RPMI-8226). Described as above. The note with it: RPMI-8226, 96 h.
Setting [8] is: read-out: Inhibition Rate at 10 nM (%).
Where [9] appears, read: read-out: Inhibition Rate at 500 nM (%).

T3 sequence (Q9UKS7 whole entry): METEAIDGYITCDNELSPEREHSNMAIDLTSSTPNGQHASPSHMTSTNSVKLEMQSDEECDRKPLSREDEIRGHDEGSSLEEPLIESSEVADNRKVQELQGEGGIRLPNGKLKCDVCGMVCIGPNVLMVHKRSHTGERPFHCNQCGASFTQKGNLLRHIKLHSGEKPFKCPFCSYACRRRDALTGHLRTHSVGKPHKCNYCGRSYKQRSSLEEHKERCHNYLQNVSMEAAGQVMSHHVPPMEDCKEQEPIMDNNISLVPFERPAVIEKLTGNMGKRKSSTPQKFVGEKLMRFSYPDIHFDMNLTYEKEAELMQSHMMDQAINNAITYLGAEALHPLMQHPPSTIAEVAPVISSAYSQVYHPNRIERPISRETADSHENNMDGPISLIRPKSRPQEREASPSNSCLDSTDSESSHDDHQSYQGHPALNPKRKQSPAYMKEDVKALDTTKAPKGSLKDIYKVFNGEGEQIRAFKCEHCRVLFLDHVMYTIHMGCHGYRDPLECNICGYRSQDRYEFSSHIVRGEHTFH
T3 sequence (Q96SW2 whole entry): as the sequence (Q96SW2 whole entry) above
T3 sequence (Q16531 whole entry partner): as the sequence (Q16531 whole entry partner) above
T1 sequence (P48729 whole entry): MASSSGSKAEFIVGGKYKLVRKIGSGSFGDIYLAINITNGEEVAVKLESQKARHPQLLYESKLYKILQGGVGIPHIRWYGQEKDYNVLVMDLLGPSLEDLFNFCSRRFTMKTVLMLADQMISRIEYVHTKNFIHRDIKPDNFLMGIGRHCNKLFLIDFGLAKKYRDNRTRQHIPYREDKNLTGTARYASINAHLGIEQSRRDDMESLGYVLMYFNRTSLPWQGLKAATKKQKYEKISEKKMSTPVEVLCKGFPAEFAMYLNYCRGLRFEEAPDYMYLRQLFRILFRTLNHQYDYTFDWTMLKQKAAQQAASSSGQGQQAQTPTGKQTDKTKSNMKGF
T1 sequence (Q96SW2 whole entry): as the sequence (Q96SW2 whole entry) above
T1 sequence (Q16531 whole entry partner): as the sequence (Q16531 whole entry partner) above
T4 sequence (Q9UKT9 whole entry): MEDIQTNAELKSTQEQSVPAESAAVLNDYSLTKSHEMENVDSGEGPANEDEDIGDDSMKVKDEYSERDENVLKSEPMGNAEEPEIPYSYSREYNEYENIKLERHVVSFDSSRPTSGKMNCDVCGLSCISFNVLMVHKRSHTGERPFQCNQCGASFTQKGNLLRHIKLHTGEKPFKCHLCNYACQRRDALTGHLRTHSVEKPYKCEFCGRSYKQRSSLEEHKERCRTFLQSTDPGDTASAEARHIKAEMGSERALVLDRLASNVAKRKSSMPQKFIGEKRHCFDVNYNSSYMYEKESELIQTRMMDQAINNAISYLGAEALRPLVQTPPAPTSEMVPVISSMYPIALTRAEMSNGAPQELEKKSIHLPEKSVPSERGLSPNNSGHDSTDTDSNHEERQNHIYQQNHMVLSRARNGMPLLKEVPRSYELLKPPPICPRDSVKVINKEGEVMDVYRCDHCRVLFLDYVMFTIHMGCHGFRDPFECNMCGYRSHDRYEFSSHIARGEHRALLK
T4 sequence (Q96SW2 whole entry): as the sequence (Q96SW2 whole entry) above
T4 sequence (Q16531 whole entry partner): as the sequence (Q16531 whole entry partner) above

On to `CC(C)c1cc2c(C3=CCN(Cc4ccc5c(c4)CN(C4CCC(=O)NC4=O)C5=S)CC3)ncnc2s1` (centres unmarked) [GT-09317, 3-(5-((4-(6-isopropylthieno[2,3-d]pyrimidin-4-yl)-3,6-dihydropyridin-1(2H)-yl)methyl)-1-thioxoisoindolin-2-yl)piperidine-2,6-dione], for which the “CK1α substrate protein remaining %” value on CK1α is recorded as “B (80%< substrate protein remaining %≤ 100%)”. At IKZF1, the “IKZF 1 substrate protein remaining %” value is reported as “A (0% ≤ substrate protein remaining % ≤ 80%)”. Further, the “IKZF2 substrate protein remaining %” value at IKZF2 is on record as “A (0% ≤ substrate protein remaining % ≤ 80%)”. The “IKZF3 substrate protein remaining %” value on IKZF3 was “A (0% ≤ substrate protein remaining % ≤ 80%)”. The “Wee1 substrate protein remaining %” value on WEE1 is recorded as “A (0% ≤ substrate protein remaining % ≤ 80%)”. For the same compound, the “GSPT1 substrate protein remaining %” value with GSPT1 is on record as “A (0% ≤ substrate protein remaining % ≤ 80%)”. The inhibition at 0.5 µM in [1] is 40 to 53%; in assay [2] (setting [9]), 60 to 70%; in [3], 80 to 100%; in [4], 100 to 110%; in assay [5] it was 100 to 110%; in assay [6], 80 to 100%. In addition, the inhibition at 2 µM in assay [1] lay in the range of 80 to 100%. The inhibition at 0.01 µM was in the range of 10 to 20% in assay [2] (setting [8]); 5 to 10% in assay [3]; 80 to 100% in assay [4]; 80 to 100% in assay [5]; 50 to 60% in [6].
On to `O=C1CCC(N2Cc3cc(CN4CC=C(c5ncnc6sc(-c7ccccc7)cc56)CC4)ccc3C2=S)C(=O)N1` (centres unmarked) [GT-09319, 3-(5-((4-(6-phenylthieno[2,3-d]pyrimidin-4-yl)-3,6-dihydropyridin-1(2H)-yl)methyl)-1-thioxoisoindolin-2-yl)piperidine-2,6-dione], for which, on CK1α, the “CK1α substrate protein remaining %” value is reported as “B (80%< substrate protein remaining %≤ 100%)”. For the same compound, the “IKZF 1 substrate protein remaining %” value on IKZF1 is given as “A (0% ≤ substrate protein remaining % ≤ 80%)”. Further, the “IKZF2 substrate protein remaining %” value at IKZF2 is given as “A (0% ≤ substrate protein remaining % ≤ 80%)”. The “IKZF3 substrate protein remaining %” value on IKZF3 was “A (0% ≤ substrate protein remaining % ≤ 80%)”. In addition, the “Wee1 substrate protein remaining %” value at WEE1 is “A (0% ≤ substrate protein remaining % ≤ 80%)”. Moreover, in the assay on GSPT1, the “GSPT1 substrate protein remaining %” value is on record as “A (0% ≤ substrate protein remaining % ≤ 80%)”. For the same compound, the inhibition at 0.5 µM in [1] lay in the range of 60 to 80%; in [7] (setting [9]) it was 50 to 60%; in assay [3], 70 to 80%; in [4], 80 to 100%; in assay [5], 80 to 100%; in assay [6] it was 80 to 100%. In addition, the inhibition at 2 µM in assay [1] lay within 80 to 100%. For the same compound, the inhibition at 0.01 µM in assay [7] (setting [8]) lay within 5 to 10%; in [3], 20 to 30%; in [4], 80 to 100%; in assay [5], 70 to 80%; in [6], 40 to 50%.
In the case of `Cc1nc(C2=CCN(Cc3ccc4c(c3)CN(C3CCC(=O)NC3=O)C4=S)CC2)c2ccsc2n1` (centres unmarked) [GT-09322, 3-(5-((4-(2-methylthieno[2,3-d]pyrimidin-4-yl)-3,6-dihydropyridin-1(2H)-yl)methyl)-1-thioxoisoindolin-2-yl)piperidine-2,6-dione], at CK1α, the “CK1α substrate protein remaining %” value was “B (80%< substrate protein remaining %≤ 100%)”. In addition, at IKZF1, the “IKZF 1 substrate protein remaining %” value was “A (0% ≤ substrate protein remaining % ≤ 80%)”. Further, the “IKZF2 substrate protein remaining %” value on IKZF2 is on record as “B (80%< substrate protein remaining %≤ 100%)”. For the same compound, at IKZF3, the “IKZF3 substrate protein remaining %” value is “B (80%< substrate protein remaining %≤ 100%)”. For the same compound, the “Wee1 substrate protein remaining %” value at WEE1 is recorded as “A (0% ≤ substrate protein remaining % ≤ 80%)”. In the assay with GSPT1, the “GSPT1 substrate protein remaining %” value was “A (0% ≤ substrate protein remaining % ≤ 80%)”. Moreover, the inhibition at 0.5 µM is 60 to 80% in assay [1], 80 to 100% in [4], 80 to 100% in assay [5] and 80 to 100% in [6]. Also, the inhibition at 2 µM in [1] lay within 80 to 100%. The inhibition at 0.01 µM in assay [4] was 10 to 20%; in [5], 5 to 10%; in assay [6] it was 10 to 20%.
On to `O=C1CCC(N2Cc3cc(CN4CC=C(c5ncnc6sc7c(c56)CCCC7)CC4)ccc3C2=S)C(=O)N1` (centres unmarked) [GT-09324, 3-(5-((4-(5,6,7,8-tetrahydrobenzo[4,5]thieno[2,3-d]pyrimidin-4-yl)-3,6-dihydropyridin-1(2H)-yl)methyl)-1-thioxoisoindolin-2-yl)piperidine-2,6-dione], for which the “CK1α substrate protein remaining %” value on CK1α was “B (80%< substrate protein remaining %≤ 100%)”. Moreover, at IKZF1, the “IKZF 1 substrate protein remaining %” value was “B (80%< substrate protein remaining %≤ 100%)”. Besides, the “IKZF2 substrate protein remaining %” value on IKZF2 is “B (80%< substrate protein remaining %≤ 100%)”. Also, at IKZF3, the “IKZF3 substrate protein remaining %” value was “B (80%< substrate protein remaining %≤ 100%)”. For the same compound, at WEE1, the “Wee1 substrate protein remaining %” value is “A (0% ≤ substrate protein remaining % ≤ 80%)”. Further, the “GSPT1 substrate protein remaining %” value with GSPT1 was “A (0% ≤ substrate protein remaining % ≤ 80%)”. For the same compound, the inhibition at 0.5 µM in assay [1] lay within 60 to 80%; in [4], 80 to 100%; in assay [5] it was 80 to 100%; in assay [6] it was 80 to 100%. Further, in [1], the inhibition at 2 µM fell in the range of 80 to 100%. Also, the inhibition at 0.01 µM in [4] is 10 to 20%; in assay [5] it was 20 to 30%; in assay [6], 30 to 40%.
In the case of `O=C1CCC(N2Cc3cc(CN4CC=C(c5ncnc6sc7c(c56)CCC7)CC4)ccc3C2=S)C(=O)N1` (centres unmarked) [GT-09325, 3-(5-((4-(6,7-dihydro-5H-cyclopenta[4,5]thieno[2,3-d]pyrimidin-4-yl)-3,6-dihydropyridin-1(2H)-yl)methyl)-1-thioxoisoindolin-2-yl)piperidine-2,6-dione], the “CK1α substrate protein remaining %” value at CK1α is reported as “B (80%< substrate protein remaining %≤ 100%)”. In addition, on IKZF1, the “IKZF 1 substrate protein remaining %” value is “B (80%< substrate protein remaining %≤ 100%)”. The “IKZF2 substrate protein remaining %” value on IKZF2 is “B (80%< substrate protein remaining %≤ 100%)”. In addition, the “IKZF3 substrate protein remaining %” value on IKZF3 was “B (80%< substrate protein remaining %≤ 100%)”. The “Wee1 substrate protein remaining %” value on WEE1 was “A (0% ≤ substrate protein remaining % ≤ 80%)”. The “GSPT1 substrate protein remaining %” value with GSPT1 is listed as “A (0% ≤ substrate protein remaining % ≤ 80%)”. Further, the inhibition at 0.5 µM lay in the range of 60 to 80% in assay [1], 80 to 100% in assay [4], 80 to 100% in [5] and 80 to 100% in [6]. Besides, the inhibition at 2 µM in assay [1] is 80 to 100%. The inhibition at 0.01 µM in assay [4] is 5 to 10%; in assay [5] it was -15 to -5%; in assay [6], 20 to 30%.
With `O=C1CCC(N2Cc3cc(CN4CC=C(c5ncc6ccsc6n5)CC4)ccc3C2=S)C(=O)N1` (centres unmarked) [GT-09327, 3-(5-((4-(thieno[2,3-d]pyrimidin-2-yl)-3,6-dihydropyridin-1(2H)-yl)methyl)-1-thioxoisoindolin-2-yl)piperidine-2,6-dione], on CK1α, the “CK1α substrate protein remaining %” value is recorded as “B (80%< substrate protein remaining %≤ 100%)”. Further, the “IKZF 1 substrate protein remaining %” value at IKZF1 is on record as “B (80%< substrate protein remaining %≤ 100%)”. In addition, the “IKZF2 substrate protein remaining %” value on IKZF2 is reported as “A (0% ≤ substrate protein remaining % ≤ 80%)”. For the same compound, the “IKZF3 substrate protein remaining %” value on IKZF3 is on record as “B (80%< substrate protein remaining %≤ 100%)”. In addition, the “Wee1 substrate protein remaining %” value on WEE1 was “A (0% ≤ substrate protein remaining % ≤ 80%)”. The “GSPT1 substrate protein remaining %” value with GSPT1 was “A (0% ≤ substrate protein remaining % ≤ 80%)”. Further, the inhibition at 0.5 µM in [1] is 60 to 80%; in assay [4] it was 80 to 100%; in assay [5], 80 to 100%; in assay [6], 80 to 100%. The inhibition at 2 µM in assay [1] was 80 to 100%. For the same compound, the inhibition at 0.01 µM in assay [4] was 20 to 30%; in assay [5] it was 30 to 40%; in [6], 20 to 30%.
